Test results published in patent US20230014226A1, “NEW COMPOUNDS AND METHODS” (BenevolentAI Bio Limited, priority 2019, published 2023).
Read-outs that look alike come from different tables or passages of the source.

Legend:
hERG ion channel = hERG ion channel (Homo sapiens, UniProt Q12809); assay: hERG QPatch automated patch clamp; format: cell-based; details: CHO cells stably expressing hERG, QPatch 48, tail current
Procedure: hERG IC50 data was supplied by Metrion using their standard assay protocol briefly detailed below.
hERG ion channel screening was assayed in CHO cells stably expressing the human ether-á-go-go related gene, using the QPatch 48 automated, chip-based planar patch clamp device. A Gigaohm seal between the cell membrane and treated silicon surface was obtained and specific external and internal buffered solutions applied to cells prior to recording. Following baseline vehicle treatment, compounds were applied in increasing concentrations (8 pt CRC), effects on hERG tail current amplitudes were measured in two-minute recordings.

HUVEC = HUVEC Cell Viability (CV) assay; format: cell-based, human; details: for IC50: Homo sapiens, alamarBlue
Procedure: Cells are seeded at 10,000 cells/well in 96-well plates in HUVEC specific cell culture media. Cells are plated and cultured overnight (16-24 h) at 37° C. After the overnight culture, cells are washed and fed with the Assay Medium. Test compounds are applied and incubated with the cells for the designated time period, after which the cell viability is measured by alamarBlue method. […] The final DMSO concentration is 1%.
Fluorescence readings are recorded after the test compound and alamarBlue incubation. The excitation and emission wavelengths are 530 nm and 590 nm, respectively.
The percent of control is calculated by comparing the readings in the presence of the test compound to the vehicle control. Subsequently, the percent inhibition is calculated by subtracting the percent control activity from 100. IC50 values (concentration causing a half-maximal inhibition of the control value) are determined by non-linear regression analysis of the concentration-response curves using the Hill equation.
The reference compound used for this assay is Staurosporine.

[1] = tested on: SC-hCMs (stem cell cardiomyocytes); assay: Cardiomyocyte assay (CRL), iPSC cardiomyocytes; format: cell-based, human; details: for effect on sodium spike amplitude vs. control (given as reduction for nilotinib and Example 39): 10 μM after 48 hours; for ΔΔ Na Spike Amp at 10 μM, 48 h (%): corrected by time matched controls
Procedure: All measurements were performed at physiological temperature in a tissue culture incubator (37° C.; 5% CO2). Test article, positive controls and vehicle were added in a sterile tissue culture hood.
At least 10 h before compound addition SC-hCMs were exposed to the fresh culture medium. Before compound addition a one-minute recording of field potentials and impedance signals (baseline) was obtained. Test articles, vehicle and positive controls were added as a 2× concentration. One-minute recordings were obtained 0.5, 1, 2, 24 and 48 h after test article addition.
At the time of drug application, culture medium was added to an independent 96 well plate that was incubated in a tissue culture incubator for 48 h. This culture medium was used as the blank of the cTnI release assay.
After the 48 h exposure recording, 150 μL of each well was centrifuged to remove debris. The supernatant was collected and frozen for later cTnI content analysis using an ELISA plate according the manufacturer's instructions (Abcam, cat #ab200016).
Data was stored on the Charles River Laboratories computer network for off-line analysis. Data acquisition was performed using RTCA Cardio Software.
Data analysis was performed using RTCA Cardio Software, Microsoft Excel and Matlab scripts. Data were reported as mean±SEM.
The following field potential parameters were quantitated: Sodium Spike amplitude, Sodium Spike Rate, field potential duration (FPD), Bazett corrected field potential duration (FPDcB), and dysrhythmic events if present.
The following impedance parameters were quantitated: Cell Index, peak amplitude, relaxation from peak to 50% amplitude (Rel50) and twitch duration.
The sodium spike is the voltage signal produced by the propagation of the depolarizing wave (positive peak) and the local activation of sodium channels (negative peak). The sodium spike amplitude is the voltage difference (in […]) between the positive and negative peaks of the sodium spike. The Sodium Spike Rate is a measure of the rate of sodium spike generation (spikes/min) produced by the spontaneous beating of stem cell cardiomyocytes.
Abnormal rhythm activity was characterized by the presence of the following proarrhythmic markers:
Triggered activity: Triggered activity (TA) is activity characterized by the presence of voltage oscillations during the repolarization period (Early After Depolarizations, EADs) or after the repolarization is completed (Delayed After Depolarizations, DADs). They are produced by different mechanisms. EADs are due to reactivation of sodium and calcium currents due to prolongation of the action potential. DADs are due to transient releases of calcium from intracellular calcium stores. Both EADs and DADs can trigger action potentials (ectopic beats, EB).
Impedance instability: Impedance instability (II) consist of small oscillations of the impedance signal during the slower relaxation phase of the impedance twitch sometimes associated with small oscillations of the field potential (FPO). […] II informs about the possibility of drug-induced delayed repolarization setting the background where more robust proarrhythmic markers like EADs and DADs occur.
The SEM of the difference was calculated according to the following equation ΔΔSEM=(SEMtreatment2+SEMcontrol2)0.5.
The statistical analysis includes 1) a Student paired t-test to evaluate the changes respect to baseline and, 2) a multi-comparison analysis (Dunnett's test) of A % changes respect to time matched controls. An alpha probability of 0.05 was considered significant.

[2] = tested on: HUVEC (human umbilical venous endothelial cells); assay: HUVEC Tube Formation assay; format: cell-based; details: 18 h incubation, read-out: Tube formation GI50
Procedure: HUVEC (human umbilical venous endothelial cells, 1.5×10^4/well, ATCC CRL-1730) are placed in an earlier prepared 96-well plate. Test substance and/or vehicle is then added to each well in a final concentration of 0.4% DMSO in growth medium under an atmosphere of 5% CO2 at 37° C. After an 18 h incubation period, morphology of the endothelial cell tubes, which resemble a capillary-like network, are evaluated by a confocal high-content imaging system. Disruption (anti-angiogenesis) of total tube length is measured from each photograph and determined relative to the vehicle control group. […] Compounds are screened at 30, 3, 0.3, 0.03 and 0.003 μM (or μg/mL) in triplicate.

[3] = molecular target: T1, recombinant human P450 enzyme 1A1 (Homo sapiens, UniProt P04798); assay: Formation of reactive metabolites (glutathione adduct) by CYP1A1 with human liver cytosol; format: in vitro ADME; details: 50 μM, human liver cytosol + recombinant CYP1A1, NADPH and GSH, 60 min
T1 construct: host or cells: Bacterial membranes (bactosomes), inferred from the named control preparation
T1 sequence (P04798 1-512): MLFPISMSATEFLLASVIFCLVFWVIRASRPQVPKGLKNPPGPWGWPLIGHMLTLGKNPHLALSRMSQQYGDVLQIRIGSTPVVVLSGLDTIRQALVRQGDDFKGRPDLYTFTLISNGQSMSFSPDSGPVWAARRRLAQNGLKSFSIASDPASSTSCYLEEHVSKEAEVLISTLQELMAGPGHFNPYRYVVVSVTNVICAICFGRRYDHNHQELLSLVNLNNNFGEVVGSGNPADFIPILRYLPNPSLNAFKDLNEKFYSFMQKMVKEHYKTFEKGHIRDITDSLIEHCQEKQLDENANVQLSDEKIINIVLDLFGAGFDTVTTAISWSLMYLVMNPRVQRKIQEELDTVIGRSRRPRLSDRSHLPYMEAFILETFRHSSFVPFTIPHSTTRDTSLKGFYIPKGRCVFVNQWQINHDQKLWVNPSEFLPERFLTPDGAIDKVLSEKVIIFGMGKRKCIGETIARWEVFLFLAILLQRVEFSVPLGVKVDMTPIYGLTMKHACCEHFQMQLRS
Procedure: Investigations into the potential for test compound to form a reactive metabolite were performed using an adapted method detailed by De Lin et al. Briefly, test compound was pre-incubated (n=2; 50 μM substrate concentration) at 37° C. for 5 min with mixed-gender human liver cytosol (1 mg/mL total protein concentration) in 100 mM phosphate buffer (pH 7.4) with 5 mM MgCl2 in the presence of recombinant human P450 enzyme 1A1 (100 nM), in the presence and absence of 5 mM glutathione. At the end of the pre-incubation period, 2 mM NADPH was added to each sample and the mixture incubated at 37° C. for 60 min. Immediately following the addition of NADPH and after the 60 min incubation period, aliquots of each sample were mixed with MeCN (containing internal standard) to terminate the reaction and precipitate the proteins.
Samples were mixed, centrifuged and following appropriate dilution, supernatants were analysed by LC-MS utilising a high-resolution mass spectrometer to perform metabolite identification and characterisation analysis.

[4] = tested on: HUVEC (human umbilical venous endothelial cells); details: HUVEC tube formation reference; read-out: expected GI50 of reference compound; cited from earlier work

hERG ion channel, sequence (Q12809 whole entry): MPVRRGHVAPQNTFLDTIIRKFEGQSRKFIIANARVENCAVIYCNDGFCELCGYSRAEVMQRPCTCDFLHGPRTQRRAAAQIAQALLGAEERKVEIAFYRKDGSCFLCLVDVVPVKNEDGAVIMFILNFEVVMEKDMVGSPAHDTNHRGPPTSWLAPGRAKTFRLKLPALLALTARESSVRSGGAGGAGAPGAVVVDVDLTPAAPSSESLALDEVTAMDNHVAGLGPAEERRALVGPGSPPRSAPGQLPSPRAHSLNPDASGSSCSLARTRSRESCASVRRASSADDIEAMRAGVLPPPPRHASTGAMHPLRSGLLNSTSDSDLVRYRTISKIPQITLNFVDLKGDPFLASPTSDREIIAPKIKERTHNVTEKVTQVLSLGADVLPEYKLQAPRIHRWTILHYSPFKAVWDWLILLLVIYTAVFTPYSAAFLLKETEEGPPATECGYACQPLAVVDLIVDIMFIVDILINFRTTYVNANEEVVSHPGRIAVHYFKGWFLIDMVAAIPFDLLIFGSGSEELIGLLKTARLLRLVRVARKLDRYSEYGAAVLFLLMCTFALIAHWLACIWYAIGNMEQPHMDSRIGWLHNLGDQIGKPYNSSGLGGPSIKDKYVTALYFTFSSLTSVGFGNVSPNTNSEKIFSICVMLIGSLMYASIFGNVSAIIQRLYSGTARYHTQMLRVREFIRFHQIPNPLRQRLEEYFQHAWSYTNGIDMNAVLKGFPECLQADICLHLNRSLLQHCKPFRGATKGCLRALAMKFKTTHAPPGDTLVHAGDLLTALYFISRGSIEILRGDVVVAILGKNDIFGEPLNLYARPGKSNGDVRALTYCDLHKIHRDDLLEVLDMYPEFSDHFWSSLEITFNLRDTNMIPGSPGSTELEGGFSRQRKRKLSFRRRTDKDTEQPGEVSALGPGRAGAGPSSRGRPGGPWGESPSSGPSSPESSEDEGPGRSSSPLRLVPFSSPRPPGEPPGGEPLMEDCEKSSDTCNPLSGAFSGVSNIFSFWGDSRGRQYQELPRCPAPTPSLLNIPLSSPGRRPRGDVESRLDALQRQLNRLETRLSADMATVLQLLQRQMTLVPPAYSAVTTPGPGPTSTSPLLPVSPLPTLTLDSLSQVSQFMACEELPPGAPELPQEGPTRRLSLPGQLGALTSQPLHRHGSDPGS

Compound	IC50 (hERG ion channel) [µM]	IC50 (HUVEC) [µM]	effect on sodium spike amplitude vs. control (given as reduction for nilotinib and Example 39) [1] [%]	Proarrhythmic Markers at 10 μM, 48 h [1]	ΔΔ Na Spike Amp at 10 μM, 48 h (%) [1] [%]	GI50 [2] [µM]	effect on cell viability compared to the compounds of the invention (HUVEC) [fold]	cTnI release / secretion ([1]; 10 μM (48 h), relative to vehicle)	formation of direct glutathione adduct [3]	formation of direct glutathione adduct ([3]; listed as ponatinib)	GI50 [4] [µM]
Cc1ccc(C(=O)Nc2cn3c(n2)COCC3(C)C)cc1C#Cc1cccnc1 [Example 39, N-(5,5-dimethyl-6,8-dihydroimidazo[2,1-c][1,4]oxazin-2-yl)-4-methyl-3-[2-(3-pyridyl)ethynyl]benzamide]	> 10	21	43	Not Observed	−43.3	> 30					
Cc1ccc(C(=O)Nc2cc3n(n2)CCCC3(F)F)cc1C#Cc1cccnc1 [Example 97, N-(4,4-difluoro-6,7-dihydro-5H-pyrazolo[1,5-a]pyridin-2-yl)-4-methyl-3-[2-(3-pyridyl)ethynyl]benzamide]	> 10	3.6	2.2	Not Observed	2.20	> 10					
Cc1ccc(C(=O)Nc2ccc(CN3CCN(C)CC3)c(C(F)(F)F)c2)cc1C#Cc1cnc2cccnn12 [Ponatinib, reference compound]							~10	increased troponin (cTnI) secretion	forms a glutathione adduct	forms a significant direct glutathione adduct	
Cc1ccc(C(=O)Nc2ccc(S(=O)(=O)O)c3cc(S(=O)(=O)O)cc(S(=O)(=O)O)c23)cc1NC(=O)c1cccc(NC(=O)Nc2cccc(C(=O)Nc3cc(C(=O)Nc4ccc(S(=O)(=O)O)c5cc(S(=O)(=O)O)cc(S(=O)(=O)O)c45)ccc3C)c2)c1 [Suramin]											15
